Measurements published in patent US20250205244A1, “METHODS OF TREATING MIGRAINE WITH MNK INHIBITORS” (4E Therapeutics, Inc., priority 2021, published 2025).
pIC50: −log10 of the molar value.

How the values were obtained:
[1] = tested on: WT mice, dural IL-6; test: Dural IL-6-induced acute facial hypersensitivity and grimace in mice; type: in vivo, mouse; settings: female and male WT mice; 10 mg/kg oral gavage prior to dural IL-6 (0.1 ng); compared to the vehicle group
From the text: Female and male MNK1 KO mice were a gift of the Sonenberg laboratory at McGill University and bred at the University of Texas at Dallas (UTD) to generate experimental animals (Ueda T, et al., MNK2 and MNK1 are essential for constitutive and inducible phosphorylation of eukaryotic initiation factor 4E but not for cell growth or development. Mol Cell Biol. August 2004). Genotype was confirmed at weaning using DNA from ear clips. Experimental C57BL6/J wild-type (WT) animals were obtained from an internally maintained C57BL/6 J colony at the University of Texas at Dallas. For pharmacological studies, female and male ICR (CD-1) mice aged 6-8 weeks (˜25-30 g) were outbred and purchased from Envigo. All mice were housed in groups of four animals per cage on a 12-hour light-dark cycle and had access to food and water ad libitum. Upon arrival to the animal care facility, animals were allowed a minimum of 72 hours to acclimate to their new environment before being handled for experiments. All experiments were performed between the hours of 9:00 AM and 5:00 PM. All procedures were conducted with prior approval of the Institutional Animal Care and Use Committee at the University of Texas at Dallas.
For dural injections, human recombinant interleukin-6 (IL-6) protein (R&D Systems) stock solution ([…]) was prepared in sterile 0.1% BSA and diluted to 1 ng/ml in synthetic interstitial fluid (SIF) consisting of 135 mM NaCl, 5 mM KCl, 10 mM HEPES, 2 mM CaCl2), 10 mM glucose, 1 mM MgCl2 (pH 7.4, 310 mOsm). Sodium nitroprusside (SNP) (Sigma-Aldrich) was prepared fresh in sterile phosphate buffered saline (PBS) at the time of use and was kept away from light. To test for the presence of hyperalgesic priming, mice were given a 150 μL IP injection of 0.1 mg/kg of SNP or a 5 μL dural injection of SIF solution that was brought to a pH of 7.0, as previously described (Avona A., et al., Repetitive stress in mice causes migraine-like behaviors and CGRP-dependent hyperalgesic priming to a migraine trigger. Pain. (2020); Burgos-Vega C. C. et al., Non-invasive dural stimulation in mice: A novel preclinical model of migraine. Cephalalgia. (2019)). […] MNK inhibitors were given orally to WT mice at 10 mg/kg approximately 1 hr prior to dural IL-6 or dural pH 7.0.
Mouse dural injections were performed as previously described (Burgos-Vega C. C. et al., Non-invasive dural stimulation in mice: A novel preclinical model of migraine. Cephalalgia. (2019)). Mice were anesthetized under isoflurane for <2 min with <2.5-3% isoflurane via a chamber and given a 5 μL injection via a modified internal cannula (Invivo1, part #8IC313ISPCXC, Internal Cannula, standard, 28 gauge, fit to 0.5 mm). […]

[2] = target: recombinant human kinase, MNK1 (Homo sapiens, UniProt Q9BUB5); test: MNK1 substrate phosphorylation assay; type: biochemical
Chain of recombinant human kinase, MNK1 (Q9BUB5 whole entry): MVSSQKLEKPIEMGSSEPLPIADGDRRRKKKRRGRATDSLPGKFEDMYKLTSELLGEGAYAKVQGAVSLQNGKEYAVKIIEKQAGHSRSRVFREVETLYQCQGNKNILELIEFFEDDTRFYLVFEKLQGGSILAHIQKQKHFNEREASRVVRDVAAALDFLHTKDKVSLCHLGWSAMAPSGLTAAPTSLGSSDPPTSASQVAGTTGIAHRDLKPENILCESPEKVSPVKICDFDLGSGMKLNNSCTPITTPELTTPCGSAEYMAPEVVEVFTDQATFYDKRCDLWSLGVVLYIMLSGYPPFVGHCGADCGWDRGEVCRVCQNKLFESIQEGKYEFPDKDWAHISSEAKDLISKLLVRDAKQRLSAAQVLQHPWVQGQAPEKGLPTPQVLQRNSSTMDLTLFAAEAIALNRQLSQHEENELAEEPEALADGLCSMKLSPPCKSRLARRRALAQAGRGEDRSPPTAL

[3] = target: recombinant human kinase, MNK2 (Homo sapiens, UniProt Q9HBH9); test: MNK2 substrate phosphorylation assay; type: biochemical
Chain of recombinant human kinase, MNK2 (Q9HBH9 whole entry): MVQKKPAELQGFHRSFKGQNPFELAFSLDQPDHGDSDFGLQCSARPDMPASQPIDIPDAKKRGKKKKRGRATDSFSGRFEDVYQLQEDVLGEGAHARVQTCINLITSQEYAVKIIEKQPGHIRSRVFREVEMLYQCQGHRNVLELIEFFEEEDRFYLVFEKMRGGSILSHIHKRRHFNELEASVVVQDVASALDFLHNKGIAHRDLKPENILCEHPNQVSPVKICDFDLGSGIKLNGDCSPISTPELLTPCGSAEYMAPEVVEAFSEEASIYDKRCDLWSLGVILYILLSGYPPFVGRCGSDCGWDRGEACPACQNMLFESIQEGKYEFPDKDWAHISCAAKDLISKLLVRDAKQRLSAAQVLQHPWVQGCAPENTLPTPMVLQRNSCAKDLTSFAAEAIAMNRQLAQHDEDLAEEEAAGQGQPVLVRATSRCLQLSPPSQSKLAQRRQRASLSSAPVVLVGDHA

[4] = tested on: eIF4E phosphorylation at Serine 209 in the human embryonic kidney (HEK) 293 cell line; test: Inhibition of eIF4E phosphorylation in HEK293 cells (phospho-specific antibody, fluorescent plate reader); type: cell-based; settings: HEK293, 2 h, eIF4E phosphorylation at Serine 209, HEK293 cells, 2 hours exposure
Method: The ability of MNK inhibitors described herein to inhibit eIF4E phosphorylation at Serine 209 in the human embryonic kidney (HEK) 293 cell line was tested by exposing the cells to compound for 2 hours and then measuring eIF4E phosphorylation with a phosphorylation-specific antibody in a fluorescent plate reader. These experiments were done with HEK-293 cells plated on 96 well plates. Following treatment, cells were fixed with ice cold methanol for 10 min and then washed in 1× phosphate buffered saline (PBS) and the permeabilized with 0.02% Triton X-100 in 10% normal goat serum made up in PBS. Primary antibody was applied overnight at a concentration dilution of 1:2000 (p-eIF4E antibody from Cell Signaling ab76256). Following washing, cells were then exposed to secondary antibody conjugated to alexa-fluor 488 and then visualized on a Syngergy HTX plate reader. Fluorescence for p-eIF4E was measured and normalized to total DAPI fluorescence to determine the percentage of eIF4E phosphorylation in each well. Data were plotted in Graphpad Prism V8 to determine concentration-response effects and calculate IC50 values.

[5] = tested on: WT mice, dural pH 7.0 after dural IL-6; test: Hyperalgesic priming to dural pH 7.0 after dural IL-6 in mice; type: in vivo, mouse; settings: female and male WT mice
From the text: Female and male MNK1 KO mice were a gift of the Sonenberg laboratory at McGill University and bred at the University of Texas at Dallas (UTD) to generate experimental animals (Ueda T, et al., MNK2 and MNK1 are essential for constitutive and inducible phosphorylation of eukaryotic initiation factor 4E but not for cell growth or development. Mol Cell Biol. August 2004). Genotype was confirmed at weaning using DNA from ear clips. Experimental C57BL6/J wild-type (WT) animals were obtained from an internally maintained C57BL/6 J colony at the University of Texas at Dallas. For pharmacological studies, female and male ICR (CD-1) mice aged 6-8 weeks (˜25-30 g) were outbred and purchased from Envigo. All mice were housed in groups of four animals per cage on a 12-hour light-dark cycle and had access to food and water ad libitum. Upon arrival to the animal care facility, animals were allowed a minimum of 72 hours to acclimate to their new environment before being handled for experiments. All experiments were performed between the hours of 9:00 AM and 5:00 PM. All procedures were conducted with prior approval of the Institutional Animal Care and Use Committee at the University of Texas at Dallas. […]

| pIC50 [2] | pIC50 [3] | SMILES | dural IL-6 induced facial grimace measures (grimace score) [1] | pIC50 [4] | dural IL-6 induced facial hypersensitivity (periorbital von Frey) [1] | hyperalgesic priming to dural pH 7.0 ([5]; 10 mg/kg oral gavage prior to dural IL-6, later tested with dural SIF pH 7.0) | hyperalgesic priming to dural pH 7.0 ([5]; 10 mg/kg oral gavage prior to dural pH 7.0, compared to the vehicle group) |
| --- | --- | --- | --- | --- | --- | --- | --- |
| – | – | Cc1cc(Nc2cc(N)ncn2)c(=O)n2c1C(=O)NC21CCCC2(CC2)CC1 (racemic) [rac-4ET-01-027, 6″-((6-aminopyrimidin-4-yl)amino)-8″-methyl-2″H-dispiro[cyclopropane-1,1′-CYCLOHEPTANE-4′,3″-imidazo[1,5-a]pyridine]-1″,5″-dione] | significantly attenuated | – | – | – | – |
| 7.51 | 8.59 | Cc1cc(Nc2cc(N)ncn2)c(=O)n2c1C(=O)NC21CCC2(CCC2)C1 (stereo not drawn) [4ET-01-015] | – | 8.41 | – | – | – |
| 7.43 | 8.73 | Nc1cc(Nc2cc(Cl)c3n(c2=O)C2(CCC4(CC4)CC2)NC3=O)ncn1 [4ET-04-023] | significantly attenuated | 8.92 | – | – | – |
| – | – | Cc1cc(Nc2cc(N)ncn2)c(=O)n2c1C(=O)NC21CCCCC1 [eFT508, reference compound] | significantly attenuated | – | significantly attenuated | did not prime to dural pH 7.0 | did not prime to pH 7.0 |
